In publication PMC6925260 (Nature Communications, 2019):
Numbering of substitutions follows the chain as printed. Like-named read-outs stand apart in the source and are kept apart here.

Legend:
[1] = biological target: T1, PPARγ LBD (wt) / MED1 LxxLL peptide (Homo sapiens, UniProt P37231); assay: Fluorescence anisotropy, MED1 peptide to wt PPARγ LBD (alone or ligand bound); assay type: binding
T1 construct: 6× His tag with TEV recognition site (N, cleaved yes); made in house; host or cells: E. coli BL21 (DE3) gold
T1 sequence (P37231 230-505): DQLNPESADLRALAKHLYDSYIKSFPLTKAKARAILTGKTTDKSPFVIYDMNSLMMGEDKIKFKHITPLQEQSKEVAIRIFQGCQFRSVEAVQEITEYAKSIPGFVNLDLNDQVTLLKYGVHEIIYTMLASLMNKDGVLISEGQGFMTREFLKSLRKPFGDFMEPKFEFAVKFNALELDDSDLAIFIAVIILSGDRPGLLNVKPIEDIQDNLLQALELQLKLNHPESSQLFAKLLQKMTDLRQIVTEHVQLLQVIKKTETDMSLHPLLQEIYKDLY
Description: (§1) These samples were then plated as usual.

[2] = biological target: T2, PPARγC313A,Q322C-BTFA LBD / NCoR peptide (Homo sapiens, UniProt P37231, C313A/Q322C); assay: Fluorescence anisotropy, NCoR peptide to PPARγC313A,Q322C-BTFA LBD; assay type: binding; conditions: Supp. Table 2
T2 construct: 6× His tag with TEV recognition site (N, cleaved yes); made in house; host or cells: E. coli BL21 (DE3) gold
T2 sequence (P37231 230-505 C313A/Q322C): T1 sequence (P37231 230-505) with C84A, Q93C
Description: as §1

[3] = biological target: T3, PPARγC313A,Q322C-BTFA LBD / MED1 peptide (Homo sapiens, UniProt P37231, C313A/Q322C); assay: Fluorescence anisotropy, MED1 peptide to PPARγC313A,Q322C-BTFA LBD; assay type: binding; conditions: Supp. Table 2
T3 construct: 6× His tag with TEV recognition site (N, cleaved yes); made in house; host or cells: E. coli BL21 (DE3) gold
Description: as §1

[4] = biological target: T4, K329A PPARγ LBD / NCoR peptide (Homo sapiens, UniProt P37231, K329A); assay: Fluorescence anisotropy, NCoR peptide to K329A PPARγ LBD; assay type: binding; conditions: read-out: NCoR dissociation constant average, K329A; Supp. Fig. 11
T4 construct: 6× His tag with TEV recognition site (N, cleaved yes); made in house; host or cells: E. coli BL21 (DE3) gold
Description: as §1

[5] = biological target: T5, N340A PPARγ LBD / NCoR peptide (Homo sapiens, UniProt P37231, N340A); assay: Fluorescence anisotropy, NCoR peptide to N340A PPARγ LBD; assay type: binding; conditions: read-out: NCoR dissociation constant average, N340A; Supp. Fig. 11
T5 construct: 6× His tag with TEV recognition site (N, cleaved yes); made in house; host or cells: E. coli BL21 (DE3) gold
Description: as §1

[6] = biological target: T6, K347A PPARγ LBD / NCoR peptide (Homo sapiens, UniProt P37231, K347A); assay: Fluorescence anisotropy, NCoR peptide to K347A PPARγ LBD; assay type: binding; conditions: read-out: NCoR dissociation constant average, K347A; Supp. Fig. 11
T6 construct: 6× His tag with TEV recognition site (N, cleaved yes); made in house; host or cells: E. coli BL21 (DE3) gold
Description: as §1

[7] = biological target: PPARγ LBD, deletion of helix 12 / NCoR peptide; assay: Fluorescence anisotropy, NCoR peptide to helix 12 deleted (DH12) PPARγ LBD; assay type: binding; conditions: read-out: NCoR dissociation constant average, DH12; Supp. Fig. 11
Description: as §1

[8] = biological target: T7, K329A PPARγ LBD / SMRT peptide (Homo sapiens, UniProt P37231, K329A); assay: Fluorescence anisotropy, SMRT peptide to K329A PPARγ LBD; assay type: binding
T7 construct: 6× His tag with TEV recognition site (N, cleaved yes); made in house; host or cells: E. coli BL21 (DE3) gold
T7 sequence (P37231 230-505 K329A): T1 sequence (P37231 230-505) with K100A
Description: as §1

[9] = biological target: T8, K347A PPARγ LBD / SMRT peptide (Homo sapiens, UniProt P37231, K347A); assay: Fluorescence anisotropy, SMRT peptide to K347A PPARγ LBD; assay type: binding
T8 construct: 6× His tag with TEV recognition site (N, cleaved yes); made in house; host or cells: E. coli BL21 (DE3) gold
T8 sequence (P37231 230-505 K347A): T1 sequence (P37231 230-505) with K118A
Description: as §1

[10] = tested on: PPARγ LBD, deletion of helix 12 / SMRT peptide; assay: Fluorescence anisotropy, SMRT peptide to helix 12 deleted (DH12) PPARγ LBD; assay type: binding
Description: as §1

wt PPARg LBD = assay: Supplementary Figure 11: fluorescence anisotropy dissociation constants, wt PPARγ LBD (peptide not given); assay type: binding
K347A PPARg LBD = assay: Supplementary Figure 11: fluorescence anisotropy dissociation constants, K347A (peptide not given); assay type: binding
K329A PPARg LBD = assay: Supplementary Figure 11: fluorescence anisotropy dissociation constants, K329A (peptide not given)
[11] = data set 2 28 18 FP inverse agonism, read-out: dissociation constant
[12] = data set FP K329A K347A 3 20 18, read-out: dissociation constant

## O=C(Nc1ccccc1)c1cc([N+](=O)[O-])ccc1Cl [GW9662]
[1]; Supp. Table 9 summary, comparator apo
  effect on coactivator LxxLL box peptide affinity: no effect
[1]; read-out: MED1 Kd, wt, Supp. Table 2, wt values not from the same experiment as PPARγC313A,Q322C-BTFA (first wt column)
  Kd: 4220 nM
[1]; read-out: MED1 WT Kd, Supp. Table 1, wt PPARγ LBD, FITC peptide 50 nM, fluorescence anisotropy, pH 7.4, 2 h room temperature
  Kd: 4900 nM
[2]
  NCoR fold change (labeled/wt), PPARγC313A,Q322C-BTFA: 1.3
[2]; read-out: NCoR Kd, PPARγC313A,Q322C-BTFA, covalent ligands T0070907, GW9662 expected to be apo-like
  Kd: 348 nM
[3]
  MED1 fold change (labeled/wt), PPARγC313A,Q322C-BTFA: 2.3
[3]; read-out: MED1 Kd, PPARγC313A,Q322C-BTFA, covalent ligands T0070907, GW9662 expected to be apo-like
  Kd: 9750 nM
[4]
  Kd: 1820 nM
[5]
  Kd: 485 nM
[6]
  Kd: 590 nM
[7]
  Kd: 93 nM
[8]; Supp. Fig. 12
  SMRT Kd, wt vs K329A mean difference ± SE: -1916±631
[8]; Supp. Fig. 12, read-out: SMRT dissociation constant average, K329A
  Kd: 2550 nM
[8]; run SMRT FP 4 5 18, read-out: SMRT dissociation constant, K329A
  Kd: 1330 nM
[8]; run SMRT FP 4 6 18, read-out: SMRT dissociation constant, K329A
  Kd: 1850 nM
[8]; run SMRT FP 4 10 18, T0070907 value 5903 excluded by the authors, read-out: SMRT dissociation constant, K329A
  Kd: 4470 nM
[9]; Supp. Fig. 12
  SMRT Kd, wt vs K347A mean difference ± SE: 64 ± 631
[9]; Supp. Fig. 12, read-out: SMRT dissociation constant average, K347A
  Kd: 570 nM
[9]; run SMRT FP 4 5 18, read-out: SMRT dissociation constant, K347A
  Kd: 527 nM
[9]; run SMRT FP 4 6 18, read-out: SMRT dissociation constant, K347A
  Kd: 638 nM
[9]; run SMRT FP 4 10 18, read-out: SMRT dissociation constant, K347A
  Kd: 546 nM
[10]; Supp. Fig. 12
  SMRT Kd, wt vs DH12 mean difference ± SE: 314 ±631
[10]; Supp. Fig. 12, read-out: SMRT dissociation constant average, DH12
  Kd: 320 nM
[10]; run SMRT FP 4 5 18, read-out: SMRT dissociation constant, DH12
  Kd: 361 nM
[10]; run SMRT FP 4 6 18, read-out: SMRT dissociation constant, DH12
  Kd: 301 nM
[10]; run SMRT FP 4 10 18, read-out: SMRT dissociation constant, DH12
  Kd: 298 nM
Wt PPARg LBD; average of the listed data sets, read-out: dissociation constant, Average wt values
  Kd: 255 nM
Wt PPARg LBD; [11]
  Kd: 242 nM
Wt PPARg LBD; data set FP 3 15 18 Inverse agonism part 2, read-out: dissociation constant
  Kd: 269 nM
Wt PPARg LBD; [12]
  Kd: 254 nM
K347A PPARg LBD; [11]
  Kd: 692 nM
K347A PPARg LBD; [12]
  Kd: 488 nM
K329A PPARg LBD; ratio of averages
  Kd mutant/Kd wt: 7.158
K329A PPARg LBD; read-out: dissociation constant, Average K329A values, average of the listed data sets
  Kd: 1820 nM
K329A PPARg LBD; read-out: dissociation constant, data set FP 3 15 18 Inverse agonism part 2
  Kd: 1800 nM
K329A PPARg LBD; read-out: dissociation constant, data set FP K329A K347A 3 20 18
  Kd: 1850 nM
